Measured values published in patent publication US10342774B2, “Topical pharmaceutical composition of acitretin” (priority 2013, dated 2019).
Values after ≈ are worked out from the molar mass of the structure shown.

Test: physchem
Conditions: 25 °C, organic solvent or mixture, thermodynamic from solid
Description: The saturation solubility of acitretin was determined by adding an excess amount of acitretin in a conical flask containing a mixture of diethylene glycol monoethyl ether, dimethyl isosorbide, and polysorbate 80, present in a w/w ratio of 3.3:24.1:1. The mixture was kept in a shaking water bath for 24 hours at 25° C.

## COc1cc(C)c(/C=C/C(C)=C/C=C/C(C)=C/C(=O)O)c(C)c1C [acitretin, all-trans-9-(4-methoxy-2,3,6-trimethylphenyl)-3,7-dimethyl-2,4,6,8-nonatetraenoic acid]
  solubility at 24 h: 2500 µg/mL (≈ 7.66 mM)
